Measured values from patent US9097667B2, “Fluorescent compounds” (BIOTIUM, INC., priority 2007, dated 2015).

Assay: Absorption and emission spectra of the dyes (λabs/λem in H2O)
Format: physicochemical
Details: Table 5, coumarin-based fluorescent groups
Text: For compounds of Formula II, it is well known to a person of skill in the art to select the bridging unit Y, in combination with a specific embodiment of a moiety of Formula F, in combination with a specific embodiment of moiety Y, and in combination with specific substituents such that the maximal fluorescence excitation wavelength of the compound ranges from about 350 to about 1200 nm. Standard analysis well known in the art is used to obtain the absorption and emission spectra of the dyes in order to ascertain the absorption maximal wavelength and the maximal fluorescence emission wavelength. Any combinations of the above described groups may be used to form a compound of the invention with a maximal fluorescence excitation wavelength of about 550 nm, about 560 nm, about 570 nm, about 580 nm, about 590 nm, about 600 nm, about 610 nm, about 620 nm, about 615 nm, about 620 nm, about 625 nm, about 630 nm, about 635 nm, about 640 nm, about 650 nm, about 655 nm, about 660 nm, about 665 nm, about 670 nm, about 675 nm, about 680 nm, about 685 nm, about 690 nm, about 695 nm, about 700 nm, about 705 nm, about 710 nm, about 715 nm, about 720 nm, about 725 nm, about 730 nm, about 735 nm, about 740 nm, about 745 nm, about 750 nm, about 755 nm, about 760 nm, about 765 nm, about 770 nm, about 775 nm, about 780 nm, about 790 nm, about 800 nm, about 810 nm, about 820 nm, about 830 nm, about 840 nm, about 850 nm, about 860 nm, about 870 nm, about 880 nm, about 890 nm, about 900 nm, about 910 nm, about 920 nm, about 930 nm, about 940 nm, about 950 nm, about 960 nm, about 970 nm, about 980 nm, about 990 nm, about 1000 nm, about 1020 nm, about 1040 nm, about 1060 nm, about 1080 nm, about 1100 nm, about 1120 nm, about 1140 nm, about 1160 nm, about 1180 nm, or about 1200 nm. The moieties described above may be used in any combination. The maximal fluorescence excitation wavelength of the dye is typically the wavelength at which the dye has a maximal absorption or maximal optical density, which excites the dye to fluoresce. In some embodiments, the compound of Formula II has an absorption maximal wavelength at >670 nm. In one embodiment, the absorption maximal wavelength is at >700 nm. According to another embodiment, the absorption maximal wavelength is at >800 nm.
With COCCOCCOCCOCCOCCOCCOCCOCCOCCOCCOCCOCCN(CCCCCC(=O)ON1C(=O)CCC1=O)C(=O)Cc1c(C)c2cc(S(=O)(=O)O)c(N)cc2oc1=O [Compound No. 51] the λabs was 346 nm and the λcm was 442 nm. COCCOCCOCCOCCOCCOCCOCCOCCOCCOCCOCCOCCN(CCCCCC(=O)ON1C(=O)CCC1=O)C(=O)c1cc2cc(F)c(O)c(F)c2oc1=O [Compound No. 52] gave a λabs of 416 nm and a λcm of 465 nm. Work on C=C(Cc1c(C)c2ccc(N)cc2oc1=O)N(CCCCCC(=O)ON1C(=O)CCC1=O)CCOCCOCCOCCOCCOCCOCCOCCOCCOCCOCCOCCOC [compound 50] yielded a λabs of 353 nm and a λcm of 442 nm. Compound COCCOCCOCCOCCOCCOCCOCCOCCOCCOCCOCCOCCOCCOCCOCCOCCOCCOCCOCCOCCOCCOCCOCCOCCN(CCCCCC(=O)ON1C(=O)CCC1=O)C(=O)CCCCCN1c2cc3oc(=O)cc(C(F)(F)F)c3cc2C(CS(=O)(=O)O)=CC1(C)C [compound 53] has a λabs of 430 nm and a λcm of 545 nm.

Assay: Total fluorescence vs. degree of labeling (DOL) of protein dye-conjugates
Format: physicochemical
Details: goat anti-mouse IgG conjugates, excited at 350 nm, compared to AMCA; FIG. 7
Description: Fluorescent conjugates of goat anti-mouse IgG (GAM), goat anti-rabbit IgG (GAR), and streptavidin were prepared from the respective proteins and a reactive dye, following published procedures (U.S. Pat. No. 6,974,873; Haugland et al., Meth. Mol. Biol. 45, 205 (1995); Haugland et al., Meth. Mol. Biol. 45, 223 (1995); Haugland et al., Meth. Mol. Biol. 45, 235 (1995); Haugland et al., Current Protocols in Cell Biology, 16.5.1-16.5.22 (2000)). Briefly, an antibody or streptavidin at 1 mg/mL in […] pH 8.5 sodium bicarbonate buffer was mixed with one of the reactive dye at various ratio of dye molecules/protein molecule. After incubating for about an hour at room temperature, the reaction mixture was separated by gel filtration using Sephadex G-25 equilibrated with PBS (pH 7.4). The various dye molecules/protein ratios used in the labeling reactions produced protein conjugates with different degree of dye labeling (DOL) as listed in Table 7 below for each dye/protein pair.
The fluorescence of the conjugates was measured using a JACSO fluorescence spectrophotometer and was then plotted against the DOL to give FIGS. 4-7.
A set of goat anti-mouse IgG conjugates were prepared by labeling a portion of goat anti-mouse IgG with one of three near IR dyes. […]
In the case of COCCOCCOCCOCCOCCOCCOCCOCCOCCOCCOCCN(CCCCCC(=O)ON1C(=O)CCC1=O)C(=O)Cc1c(C)c2ccc(N)cc2oc1=O [Compound No. 92], the “total fluorescence vs. degree of labeling (DOL)” value is reported as “higher fluorescence quantum yield over a wide of degree of labeling and has less fluorescence quenching when the antibody is at higher degrees of labeling”.
